Results reported in PMC9154192 (PLoS Biology, 2022).
Like-named read-outs stand apart in the source and are kept apart here. Marks after values point to notes of the source that are not given here.

Format: in vivo, SD rats
Procedure: Toxicity studies were conducted at Biotoxtech (Korea) under review and approval from IACUC (170842, 180144, 170889) of Biotoxtech. All animals used in the toxicity test were purchased from OrientBio (Korea).
A subchronic toxicity study was performed for PP2S. Female and male rats were divided into a control group (0 mg/kg/day, n = 15), a low-dose group (167 mg/kg/day, n = 10), a medium-dose group (500 mg/kg/day, n = 10), and a high-dose group (1,500 mg/kg/day, n = 15), respectively. Thus, there were a total of 8 groups. The drug was administered by oral gavage at 10 mL/kg body weight daily for 4 weeks. Five animals each in the control and high-dose groups continued their treatments for 2 more weeks. Clinical symptoms were observed, and body weight was measured during the test period for a total of 6 weeks; 0.5% methyl cellulose 1,500 cP (Sigma, USA) in water for injection (JW Pharmaceutical, Korea) was used as a vehicle. Control animals were treated with only the same volume of the vehicle.
Organ weights were measured while conducting a 4-week repeated oral toxicity study for PP2S. For all animals, wet weight of the following organs were measured, and the relative organ weight ratio to the fasted body weight was calculated. Organs with left and right sides were weighed together. […] In addition, changes observed with statistical significance in females of the recovery group were minor changes, which were not observed in the main test group. They were not accompanied by other related changes. Thus, they were judged to have no toxicological significance.

[1] = female, 167 mg/kg, dosing period
[2] = female, 500 mg/kg, dosing period
[3] = female, 1,500 mg/kg, dosing period
[4] = female, 1,500 mg/kg, recovery period
[5] = male, 1,500 mg/kg, dosing period
[6] = male, 1,500 mg/kg, recovery period
[7] = up to 1,500 mg/kg/day oral, 4 weeks of administration and 2 weeks of recovery

CCCCOc1ccc2cc(CN3C(=O)CC[C@H]3C(=O)OC)c3cc(OC)c(OC)cc3c2c1 [PP2S, Methyl (S)-1-((3-butoxy-6,7-dimethoxyphenanthren-9-yl)methyl)-5-oxopyrrolidine-2-carboxylate]
effect on organ weights (all administration groups, male and female, main test and recovery group): effect of the test substance was not recognized
B.W. (mean) [1]: 218.0 g
Mean absolute organ weight, Adrenal [1]: 0.0775 g
Mean absolute organ weight, Heart [1]: 0.87 g
Mean absolute organ weight, Kidney [1]: 1.77 g
Mean absolute organ weight, Liver [1]: 6.63 g
Mean absolute organ weight, Lung [1]: 1.09 g
Mean absolute organ weight, Ovary [1]: 0.0898 g
Mean absolute organ weight, Pituitary [1]: 0.0140 g
Mean absolute organ weight, Spleen [1]: 0.50 g
Mean absolute organ weight, Uterus [1]: 0.52 g
Mean relative organ weight, Adrenal [1]: 0.0357 g/100g body weight
Mean relative organ weight, Brain [1]: 0.83 g/100g body weight
Mean relative organ weight, Heart [1]: 0.40 g/100g body weight
Mean relative organ weight, Kidney [1]: 0.81 g/100g body weight
Mean relative organ weight, Liver [1]: 3.05 g/100g body weight
Mean relative organ weight, Lung [1]: 0.50 g/100g body weight
Mean relative organ weight, Ovary [1]: 0.0410 g/100g body weight
Mean relative organ weight, Pituitary [1]: 0.0065 g/100g body weight
Mean relative organ weight, Spleen [1]: 0.23 g/100g body weight
Mean relative organ weight, Uterus [1]: 0.24 g/100g body weight
B.W. (mean) [2]: 224.1 g
Mean absolute organ weight, Adrenal [2]: 0.0755 g
Mean absolute organ weight, Heart [2]: 0.89 g
Mean absolute organ weight, Kidney [2]: 1.70 g
Mean absolute organ weight, Liver [2]: 6.67 g
Mean absolute organ weight, Lung [2]: 1.10 g
Mean absolute organ weight, Ovary [2]: 0.0846 g
Mean absolute organ weight, Pituitary [2]: 0.0139 g
Mean absolute organ weight, Spleen [2]: 0.47 g
Mean absolute organ weight, Uterus [2]: 0.53 g
Mean relative organ weight, Adrenal [2]: 0.0337 g/100g body weight
Mean relative organ weight, Brain [2]: 0.78 g/100g body weight
Mean relative organ weight, Heart [2]: 0.40 g/100g body weight
Mean relative organ weight, Kidney [2]: 0.76 g/100g body weight
Mean relative organ weight, Liver [2]: 2.97 g/100g body weight
Mean relative organ weight, Lung [2]: 0.49 g/100g body weight
Mean relative organ weight, Ovary [2]: 0.0381 g/100g body weight
Mean relative organ weight, Pituitary [2]: 0.0062 g/100g body weight
Mean relative organ weight, Spleen [2]: 0.21 g/100g body weight
Mean relative organ weight, Uterus [2]: 0.24 g/100g body weight
B.W. (mean) [3]: 217.3 g
Mean absolute organ weight, Adrenal [3]: 0.0730 g
Mean absolute organ weight, Brain [3]: 1.86 g
Mean absolute organ weight, Heart [3]: 0.84 g
Mean absolute organ weight, Kidney [3]: 1.72 g
Mean absolute organ weight, Liver [3]: 6.49 g
Mean absolute organ weight, Lung [3]: 1.11 g
Mean absolute organ weight, Ovary [3]: 0.0874 g
Mean absolute organ weight, Pituitary [3]: 0.0139 g
Mean absolute organ weight, Spleen [3]: 0.48 g
Mean absolute organ weight, Uterus [3]: 0.47 g
Mean relative organ weight, Adrenal [3]: 0.0335 g/100g body weight
Mean relative organ weight, Brain [3]: 0.84 g/100g body weight
Mean relative organ weight, Heart [3]: 0.38 g/100g body weight
Mean relative organ weight, Kidney [3]: 0.79 g/100g body weight
Mean relative organ weight, Liver [3]: 2.98 g/100g body weight
Mean relative organ weight, Lung [3]: 0.51 g/100g body weight
Mean relative organ weight, Ovary [3]: 0.0402 g/100g body weight
Mean relative organ weight, Pituitary [3]: 0.0064 g/100g body weight
Mean relative organ weight, Spleen [3]: 0.22 g/100g body weight
Mean relative organ weight, Uterus [3]: 0.22 g/100g body weight
B.W. (mean) [4]: 248.7 g
Mean absolute organ weight, Adrenal [4]: 0.0723 g
Mean absolute organ weight, Brain [4]: 1.86 g
Mean absolute organ weight, Heart [4]: 0.91 g
Mean absolute organ weight, Kidney [4]: 1.73 g
Mean absolute organ weight, Liver [4]: 7.01 * g
Mean absolute organ weight, Lung [4]: 1.17 * g
Mean absolute organ weight, Ovary [4]: 0.1012 g
Mean absolute organ weight, Pituitary [4]: 0.0154 g
Mean absolute organ weight, Spleen [4]: 0.54 g
Mean absolute organ weight, Uterus [4]: 0.54 g
Mean relative organ weight, Adrenal [4]: 0.0291 g/100g body weight
Mean relative organ weight, Brain [4]: 0.75 g/100g body weight
Mean relative organ weight, Heart [4]: 0.37 g/100g body weight
Mean relative organ weight, Kidney [4]: 0.69 g/100g body weight
Mean relative organ weight, Liver [4]: 2.81 g/100g body weight
Mean relative organ weight, Lung [4]: 0.48 g/100g body weight
Mean relative organ weight, Ovary [4]: 0.0407 g/100g body weight
Mean relative organ weight, Pituitary [4]: 0.0062 g/100g body weight
Mean relative organ weight, Spleen [4]: 0.22 g/100g body weight
Mean relative organ weight, Uterus [4]: 0.22 g/100g body weight
B.W. (mean) (male, 167 mg/kg, dosing period): 363.4 g
Mean absolute organ weight, Adrenal (male, 167 mg/kg, dosing period): 0.0619 g
Mean absolute organ weight, Brain (male, 167 mg/kg, dosing period): 1.79 g
Mean absolute organ weight, Heart (male, 167 mg/kg, dosing period): 1.33 g
Mean absolute organ weight, Kidney (male, 167 mg/kg, dosing period): 2.59 g
Mean absolute organ weight, Liver (male, 167 mg/kg, dosing period): 10.38 g
Mean absolute organ weight, Lung (male, 167 mg/kg, dosing period): 1.42 g
Mean absolute organ weight, Pituitary (male, 167 mg/kg, dosing period): 0.0109 g
Mean absolute organ weight, Prostate (male, 167 mg/kg, dosing period): 0.40 g
Mean absolute organ weight, Spleen (male, 167 mg/kg, dosing period): 0.69 g
Mean absolute organ weight, Testis (male, 167 mg/kg, dosing period): 3.22 g
Mean relative organ weight, Adrenal (male, 167 mg/kg, dosing period): 0.0170 g/100g body weight
Mean relative organ weight, Brain (male, 167 mg/kg, dosing period): 0.54 g/100g body weight
Mean relative organ weight, Heart (male, 167 mg/kg, dosing period): 0.37 g/100g body weight
Mean relative organ weight, Kidney (male, 167 mg/kg, dosing period): 0.72 g/100g body weight
Mean relative organ weight, Liver (male, 167 mg/kg, dosing period): 2.86 g/100g body weight
Mean relative organ weight, Lung (male, 167 mg/kg, dosing period): 0.39 g/100g body weight
Mean relative organ weight, Pituitary (male, 167 mg/kg, dosing period): 0.0030 g/100g body weight
Mean relative organ weight, Prostate (male, 167 mg/kg, dosing period): 0.11 g/100g body weight
Mean relative organ weight, Spleen (male, 167 mg/kg, dosing period): 0.19 g/100g body weight
Mean relative organ weight, Testis (male, 167 mg/kg, dosing period): 0.89 g/100g body weight
B.W. (mean) (male, 500 mg/kg, dosing period): 363.5 g
Mean absolute organ weight, Adrenal (male, 500 mg/kg, dosing period): 0.0622 g
Mean absolute organ weight, Brain (male, 500 mg/kg, dosing period): 1.74 g
Mean absolute organ weight, Heart (male, 500 mg/kg, dosing period): 1.31 g
Mean absolute organ weight, Kidney (male, 500 mg/kg, dosing period): 2.67 g
Mean absolute organ weight, Liver (male, 500 mg/kg, dosing period): 10.46 g
Mean absolute organ weight, Lung (male, 500 mg/kg, dosing period): 1.41 g
Mean absolute organ weight, Pituitary (male, 500 mg/kg, dosing period): 0.0119 g
Mean absolute organ weight, Prostate (male, 500 mg/kg, dosing period): 0.49 g
Mean absolute organ weight, Spleen (male, 500 mg/kg, dosing period): 0.69 g
Mean absolute organ weight, Testis (male, 500 mg/kg, dosing period): 3.32 g
Mean relative organ weight, Adrenal (male, 500 mg/kg, dosing period): 0.0171 g/100g body weight
Mean relative organ weight, Brain (male, 500 mg/kg, dosing period): 0.55 g/100g body weight
Mean relative organ weight, Heart (male, 500 mg/kg, dosing period): 0.36 g/100g body weight
Mean relative organ weight, Kidney (male, 500 mg/kg, dosing period): 0.74 g/100g body weight
Mean relative organ weight, Liver (male, 500 mg/kg, dosing period): 2.87 g/100g body weight
Mean relative organ weight, Lung (male, 500 mg/kg, dosing period): 0.39 g/100g body weight
Mean relative organ weight, Pituitary (male, 500 mg/kg, dosing period): 0.0033 g/100g body weight
Mean relative organ weight, Prostate (male, 500 mg/kg, dosing period): 0.14 g/100g body weight
Mean relative organ weight, Spleen (male, 500 mg/kg, dosing period): 0.19 g/100g body weight
Mean relative organ weight, Testis (male, 500 mg/kg, dosing period): 0.91 g/100g body weight
B.W. (mean) [5]: 366.0 g
Mean absolute organ weight, Adrenal [5]: 0.0630 g
Mean absolute organ weight, Brain [5]: 1.81 g
Mean absolute organ weight, Heart [5]: 1.33 g
Mean absolute organ weight, Kidney [5]: 2.63 g
Mean absolute organ weight, Liver [5]: 10.79 g
Mean absolute organ weight, Lung [5]: 1.45 g
Mean absolute organ weight, Pituitary [5]: 0.0113 g
Mean absolute organ weight, Prostate [5]: 0.45 g
Mean absolute organ weight, Spleen [5]: 0.74 g
Mean absolute organ weight, Testis [5]: 3.35 g
Mean relative organ weight, Adrenal [5]: 0.0172 g/100g body weight
Mean relative organ weight, Brain [5]: 0.54 g/100g body weight
Mean relative organ weight, Heart [5]: 0.37 g/100g body weight
Mean relative organ weight, Kidney [5]: 0.72 g/100g body weight
Mean relative organ weight, Liver [5]: 2.94 g/100g body weight
Mean relative organ weight, Lung [5]: 0.40 g/100g body weight
Mean relative organ weight, Pituitary [5]: 0.0031 g/100g body weight
Mean relative organ weight, Prostate [5]: 0.12 g/100g body weight
Mean relative organ weight, Spleen [5]: 0.20 g/100g body weight
Mean relative organ weight, Testis [5]: 0.92 g/100g body weight
B.W. (mean) [6]: 419.4 g
Mean absolute organ weight, Adrenal [6]: 0.0595 g
Mean absolute organ weight, Heart [6]: 1.36 g
Mean absolute organ weight, Kidney [6]: 2.73 g
Mean absolute organ weight, Liver [6]: 11.62 g
Mean absolute organ weight, Lung [6]: 1.61 g
Mean absolute organ weight, Prostate [6]: 0.59 g
Mean absolute organ weight, Spleen [6]: 0.72 g
Mean absolute organ weight, Testis [6]: 3.48 g
Mean relative organ weight, Adrenal [6]: 0.0140 g/100g body weight
Mean relative organ weight, Brain [6]: 0.48 g/100g body weight
Mean relative organ weight, Heart [6]: 0.33 g/100g body weight
Mean relative organ weight, Kidney [6]: 0.65 g/100g body weight
Mean relative organ weight, Liver [6]: 2.76 g/100g body weight
Mean relative organ weight, Lung [6]: 0.38 g/100g body weight
Mean relative organ weight, Pituitary [6]: 0.0028 g/100g body weight
Mean relative organ weight, Prostate [6]: 0.14 g/100g body weight
Mean relative organ weight, Spleen [6]: 0.17 g/100g body weight
Mean relative organ weight, Testis [6]: 0.83 g/100g body weight
organ weight/histopathological changes (up to 1,500 mg/kg/day oral, 4 weeks): no organ weight/histopathological changes were observed
change in body weight compared to control group [7]: did not lead to a significant change
death or abnormal clinical symptoms [7]: did not cause death or abnormal clinical symptoms
